Patent publication US8193238B2, “Inhibition of microtubule protrusion in cancer cells” (University of Maryland, Baltimore, priority 2006, dated 2012)
“Also recorded” adds a separate entry of the source.

How the values were obtained:
[1] = test system: detached mammary epithelial cells; test: Protrusions of detached mammary epithelial cells, general statements; assay type: cell-based, human and mouse
Protocol: Time-lapse video microscopy of detached mammary epithelial cells detected the extension of long, dynamic protrusions of the plasma membrane, and the present inventors have characterized the cytoskeletal mechanism underlying this novel observation. […] This response may be relatively short-lived, in specific embodiments, since mammary epithelial cells die by apoptosis within about 24 hours in suspension. However, cell lines that resist apoptosis through expression of either Bcl-2 or Bcl-xL will persistently form protrusions. Previous studies by the inventors indicate that such apoptotically-resistant cell lines will not form tumors in mice and lie dormant in distant tissues, in specific embodiments of the invention. […] These microtubule processes can extend more than 3 times the cell diameter, and undergo a rapid probing motion more than once per second. Formation of these microtubule protrusions is necessary for efficient cell-cell and cell-substratum attachment. In particular embodiments of the invention, this inherent microtubule response in detached mammary epithelial cells provides at least some of the invasive characteristics of breast cancer, independent of any tumor-specific genetic alteration, for example.
Breast tumor cells enter the bloodstream long before the development of clinically evident metastasis. However, the early presence of such bloodborne cells predicts poor patient outcome. Nearly 90% of human breast tumors arise as carcinomas from mammary epithelial cells, so it is important to characterize how these cells respond to the detached conditions that they would experience in the bloodstream. In the present invention, mammary epithelial cell lines produce long and dynamic protrusions of the plasma membrane when detached. Although human and mouse mammary epithelial cell lines die by apoptosis within 16 hours of detachment, this protrusive response persists for days in cells overexpressing either Bcl-2 or Bcl-xL, for example. […] Since bloodborne metastasis depends on both cell-cell and cell-matrix attachment, microtubule-based protrusions in detached mammary epithelial cells provide a novel target that could influence the metastatic spread of breast tumors.
Detachment-induced increases in Glu-tubulin could promote plasma membrane protrusions of microtubules by preventing efficient capture at the actin cortex. […] Therefore, our current model is that detachment increases stabilized microtubules enriched in Glu-tubulin, while decreased actin polymerization simply promotes extension of these microtubule protrusions.

Glu-tubulin = test: Western blotting of modified tubulin isoforms in attached or suspended cells; assay type: cell-based, mouse; conditions: for cellular levels of Glu-tubulin: EpH4-Bcl2, attached or detached, LA 5 μM
Protocol: EpH4-Bcl2 cells were grown attached to tissue culture dishes or suspended over agarose for the indicated times in either the absence or presence of LA (5 μM). In FIG. 5A, cell lysates were immunoblotted to detect levels of modified tubulin isoforms in the cell populations. In FIG. 5B, modified α-tubulin isoforms were normalized to total α-tubulin and then compared relative to the levels in attached cells at time zero. Bars represent the mean+S.E.M. of four independent experiments. […] Differences in Glu-tubulin upon detachment were also statistically-significant when compared to matched controls at time zero or one hour (black asterisks).
Whole cell lysates were prepared from EpH4 cells that were scraped or suspended in the presence or absence of 5 μM Latrunculin-A. Cells were pelleted at 3000 rpm×5 min and resuspended in lysis buffer (2% SDS, 100 mM Tris-HCl (pH 6.8), 20% Glycerol, 20 mM DTT, 1 mM phenylmethylsulfonyl fluoride, 1% protease inhibitor cocktail (Sigma, P2714)), and then immediately boiled for 10 min. Protein concentration was measured using a Lowry based assay (Bio-Rad, Hercules, Calif.). The amount of 17.5 μg of protein from each sample was separated by SDS-PAGE on 10% polyacrylamide gels and then transferred to Immuno-Blot PVDF membranes (Bio-Rad, Hercules, Calif.). The membrane was blocked in 2% milk in TBS with 0.1% Tween for 1 hr at room temperature followed by an overnight incubation at 4° C. in monoclonal α-tubulin (1:1000), tyrosinated tubulin (1:1000), acetylated tubulin (1:1000), and polyclonal detyrosinated tubulin (1:1000) in 1% milk in TBST. Secondary antibodies to IgG conjugated to horseradish peroxidase were used (1:5000; GE Healthcare, Piscataway, N.J.) and visualized using ECL chemiluminescent detection kit.
Immediately following detachment, levels of Glu-tubulin increase and remain elevated for at least 2 hours. […] The increased length and number of protrusions in response to LA may therefore reflect a decrease in an actin-dependent counteracting force, rather than a direct induction of protrusions.

MCF10A cells = test: Protrusions in suspended cells treated with cytoskeletal inhibitors (MCF10A); assay type: cell-based, human; parameters: protrusions counted with phase-contrast microscopy: dose or concentration left out as unconfirmed
Protocol: In FIG. 2A, after 15 minutes of suspension, protrusions in EpH4 and MCF10A cells are quite small (Control, white arrows). […] In FIG. 2B, populations of live, suspended cells were scored blindly for two or more protrusions longer than the cell radius. Each bar represents the mean+S.D. for three experiments in which at least 100 single cells were counted.
In order to initially characterize the cytoskeletal mechanism underlying these protrusions, suspended cells were treated with inhibitors of actin and tubulin polymerization (FIG. 2). After 15 minutes of suspension, the protrusions in untreated EpH4 or MCF10A cells remain fairly short (FIG. 2, white arrows). These early protrusions can often be difficult to detect with phase-contrast microscopy, due to interfering light refraction from the plasma membrane. […] Protrusions were more easily visible with immunofluorescence than phase contrast microscopy (FIG. 3, white arrows). Although actin filament staining was generally low along the length of the protrusion, dense points of actin were often found at the end of protrusions (FIG. 3, arrowheads).
The nontumorigenic human mammary epithelial cell line (MCF10A) or the indicated human breast tumor cell lines were grown in suspension for 30-60 minutes, and protrusions were counted in random fields with phase-contrast microscopy. Values represent the mean±S.D. of three experiments in which at least 100 cells were counted. […] This effect was most apparent in the highly metastatic but exemplary Bt-474 and MDA-MB-231 cells (pictured, black arrows). The exemplary MCF10A cells show far fewer and shorter protrusions at the same time point (pictured, white arrows). Such protrusions are not observed in attached cells.

Structure (SMILES): C/C1=C/C(=O)O[C@@H]2C[C@@H](CC[C@H](C)/C=C\C=C\CC1)O[C@@](O)([C@@H]1CSC(=O)N1)C2 [Latrunculin-A]
- protrusions [1]: enhanced; also recorded: promotes the extension of microtubule protrusions
- total cellular levels of α-tubulin, tyrosinated or acetylated tubulin (Glu-tubulin; EpH4-Bcl2, LA treatment): remain unaffected
- cellular levels of Glu-tubulin (Glu-tubulin): did not increase
- cellular levels of Glu-tubulin (Glu-tubulin; listed as LA): not specifically increased; also recorded: does not significantly increase cellular levels of Glu-tubulin
- protrusions counted with phase-contrast microscopy (MCF10A cells; MCF10A in suspension 30-60 minutes, LA): increases protrusions
- protrusions (MCF10A cells; MCF10A, 15 minutes of suspension, Latrunculin-A 5 μM, Colchicine 1 μM, listed as latrunculin-A): significantly enhanced both the number and length of protrusions
